Our source for the MIC and MCC values is US4966895A, “Cyclic monophosphates of purine and pyrimidine acyclonucleosides as anti-retroviral agents” (Merck & Co. Inc., priority 1989, dated 1990).

Converted amounts (≈) assume the structure as drawn. Where a name gives a salt, the structure may show the parent alone. Read-outs that look alike come from different tables or passages of the source.

The subject of data set [1] is visna virus. The data set can be described thus: Inhibition of visna virus-induced CPE in sheep choroid plexus (SCP) cells. The format is cell-based, strain 1514. To be noted: Visna-maedi virus, 144 h. The text has this:
Activity of 9-[(2-hydroxy-1,3,2-dioxophosphorian-5-yl)oxymethyl]guanine P-oxide, sodium salt (2'-NOR-cGMP) against visna virus in sheep choroid plexus cells.
Visna virus, strain 1514, is a lentivirus of the retrovirus family. It was chosen because of its genetic and biologic similarity to the human immunodeficiency viruses (HIV). Since visna virus and the human immunodeficiency virus are closely related retroviruses, activity against the visna virus by a compound is felt to predict activity against the human immunodeficiency virus by the same compound. (See Visna Virus as an In Vitro Model for Human Immunodeficiency Virus and Inhibition by Ribavirin, Phosphonoformate, and 2',3'-Dideoxy-nucleosides, Frank K. B.; McKernan P.A.; Smith R.A.; Smee D.F.; Antimicrobiol Agents and Chemotherapy, Sept. 1987; Vol. 31, No. 9 Pg 1369-1374.) The virus has been cultivated and plaque purified in SCP cells fed with MEM, HEPES, gentamicin and 2% lamb serum.
(§1) Visna virus is cultivated in low passage cells derived from the choroid plexus (SCP) of a newborn lamb. The choroid plexus is dissected from the newborn lamb, minced and diluted in minimum essential medium (MEM), containing 20% fetal bovine serum (FBS), 1 mM N 2-hydroxyethylpiperazine-N'-2-ethane sulfonic acid (HEPES), 50 μg/ml gentamicin at PH 7.4. After initial cultivation, cells are dispersed by addition of trypsin (0.25%) plus EDTA, split 1:2 and added to MEM+10% FBS, HEPES, gentamicin and reincubated. At approximately passage 4 there are adequate numbers of cells for freezing and storage in liquid nitrogen.
(§2) For antiviral assays, 0.2 ml SCP cells (0.7×10^5 cells/ml) are inoculated into wells of 96 well microtiter plates and incubated for 18-24 hours.
(§3) The medium is decanted from the cells, and drug and virus(~320-50% infectious doses) are added within 15 minutes. Each concentration of drug (serial two-fold or half-log dilutions) are added in 0.1 ml volumes to each of 6 wells. Visna virus is added (0.1 ml) to 4 wells for observation of virus inhibitory activity.
(§4) Virus free test medium is added to two wells (0.1 mL) for observation of drug cytotoxicity. Experimental controls include: cell control (cells with 0.2 mL medium) and virus controls (cells with 0.1 mL virus and 0.1 mL medium). The degree of CPE inhibition and drug cytotoxicity in comparison with virus and cell controls is observed microscopically after 6 days of incubation at 37° C. Fresh medium and drug dilutions are placed on the cells after 3 days of incubation. Virus CPE and drug cytotoxicity are scored on a 0-4 basis with 4 representing total cell destruction. The lowest concentration of drug producing ≥50% inhibition of virus-induced CPE is considered the minimum inhibitory concentration (MIC). The lowest concentration of drug producing a score of […] or visable alteration in cell morphology will be considered the minimum cytotoxic concentration (MCC). Using the observed percent CPE, the MIC will be calculated by linear regression analysis.

Data set [2] can be described thus: in vitro. The data set is classed as cell-based. Particulars: sheep, choroid plexus cells. The method, then: as §1, §2, §3, §4
[3] abbreviates: mean of individual values, ≥50% inhibition of virus-induced CPE, 6 days, 37° C, sheep choroid plexus cells, read-out: MIC (minimum inhibitory concentration), Mean.
The mark [4] stands for this setting: MCC (minimum cytotoxic concentration), Range.
Setting [5] is: read-out: MIC (minimum inhibitory concentration), Mean.

As for `Nc1nc2c(ncn2COC2COP(=O)(O)OC2)c(=O)[nH]1` (centres unmarked) [2'-nor-cGMP, 9-[(2-hydroxy-1,3,2-dioxophosphorian-5-yl)oxymethyl]guanine P-oxide, sodium salt], the MIC in data set [1] (setting [3]) was 24 µg/mL. In addition, in data set [2] (setting [4]), the MCC at 144 h was 32 to 100 µg/mL.
Turning to `Cc1cn([C@H]2C[C@H](N=[N+]=[N-])[C@@H](CO)O2)c(=O)[nH]c1=O` [Azidothymidine], the MIC turned out to be 10 µg/mL (≈ 37.4 µM) in data set [1] (read-out: MIC (minimum inhibitory concentration), Individual Values) and 10 µg/mL (≈ 37.4 µM) in data set [1] (setting [5]). Further, the MCC at 144 h in data set [2] (MCC (minimum cytotoxic concentration), Individual Values) is 40 µg/mL; in data set [2] (setting [4]), 40 µg/mL.
Take `O=C(O)P(=O)(O)O` [Phosphonoformate]: the MIC in data set [1] (setting [5]) was determined as 57.4 µg/mL (≈ 456 µM). Besides, the MCC at 144 h came out at 100 µg/mL in data set [2] (range of individual values, 6 days, 37° C, virus free, read-out: MCC (minimum cytotoxic concentration), Range) and 100 µg/mL in data set [2] (lowest concentration producing a score of ≤1 or visible alteration in cell morphology, 6 days, 37° C, virus free, read-out: MCC (minimum cytotoxic concentration), Individual Values).
In the case of `NC(=O)c1ncn([C@@H]2O[C@H](CO)[C@@H](O)[C@H]2O)n1` [Virazole], the MIC in data set [1] (setting [3]) turned out to be 175 µg/mL (≈ 718 µM). Moreover, the MCC at 144 h in data set [2] (setting [4]) fell in the range of 100 to 320 µg/mL.
